What was measured:
orthotopic PyMT tumors = assay: Established orthotopic PyMT tumors in FVB female mice; type: in vivo
Experimental: FIG. 5B, Tumor size was determined. Vehicle, n=10 mice, C26-A6, n=12 mice. Significance determined by Two-Way Repeated Measures ANOVA test.
FIG. 5C, Tumor mass was determined. Vehicle, n=10 mice, C26-A6, n=12 mice. Size bar, 2 cm.
FIG. 5D, H&E staining was performed with lungs, and metastatic nodules were counted. The metastatic nodules of the representative lungs were highlighted with red and blue respectively. Vehicle, n=10 lungs; C26-A6, n=12 lungs. Size bar, 5 mm.
FIG. 13D, Primary tumors from experiment in FIG. 5B were stained with Ki67 and Cleaved-Caspase 3 (Casp-3) antibodies. Size bar, 100 μm.
FIG. 13E, Positive cells were quantified. Data represent mean±SEM. n=6 mice.
Next, established orthotopic PyMT tumors^4 were treated with vehicle or C26-A6 (FIG. 5A). […] The results were confirmed with SCP28 xenograft tumor model in NSG mice (FIGS. 13A-13C).
Methods: Animal models. All procedures involving mice and experimental protocols were approved by the Institutional Animal Care and Use Committees (IACUC) of Princeton University. According to the approved IACUC protocol (1881-20), the primary humane endpoint of tumor burden for an individual mouse is 20 mm in any dimension or a total volume of 4000 mm^3 for mice with multiple tumors. Mice were euthanized before exceeding the limit of tumor burden in this study. In the facility, mice were maintained at 20-22° C. with 14 h:10 h light:dark cycles at 40-70% relative humidity. The Mtdh^fl/fl ES cell lines generated by Mtdh targeting vector (CSD48311) was obtained from the KOMP Repository. The ES cells were injected into the C57BL/6 blastocysts followed by confirmation of germline transmission. Mtdh^fl/fl mice were crossed with FLPe mice to remove the selection marker in the vector. Genotyping (Forward primer: […] (SEQ ID NO:21); Reverse primer: […] (SEQ ID NO:22)) was performed to identify positive mice before they were crossed to other strains that were indicated in each experiment. FLPe (Stock No. 003946), MMTV-PyMT (Stock No. 002374), MMTV-WNT1 (Stock No. 002934), C3 (Stock No. 013591), UBC-Cre^ERT2 (Stock No. 007001), FVB (Stock No. 001800), Balb/C (Stock No. 000651), Athymic nude (Nude) (Stock No. 002019), and NOD Scid Gamma (NSG) (Stock No. 005557) were obtained from Jackson Laboratory. Mice in C57BL/6 background were backcrossed to FVB for at least 10 generations to change the background. […] The tumors were measured by calipers for calculation of tumor volumes (length×width^2/2). For cell lines that are stably labeled with a firefly luciferase expressing vector, lung metastases were monitored by bioluminescent imaging (BLI) and images were processed with Living Image 3D Analysis (version 1.0). […]

[1] = system: E0771-OVA Tap1/2 KD cells; assay: E0771-OVA Tap1/2 KD cells / OT-I splenocyte co-culture; type: cell-based, mouse
Text: For FIGS. 33B-33D, E0771-OVA cells with (shTap1/2) or without (shCtrl) Tap1/2 knockdown were co-cultured with OT-I splenocytes with the ratio of 1:10 (tumor cells:splenocytes). Data represent mean±SEM. n=3 independent experiments. Significance determined by one-way ANOVA analysis with Sidak's test for multiple comparisons.
FIG. 33B, 24 hr after co-culture, tumor cells were collected for examining OVA (H-2K^b-SIINFEKL) expression.
FIG. 33C, 24 hr after co-culture, tumor cells were collected for examining MHC-I expression.
FIG. 33D, 24 hr after co-culture, splenocytes were collected for examining CD137 expression.
FIG. 33E, The same co-culture experiment as in FIG. 33B were performed. The live tumor cells were indicated by luciferase signal. The percentage of live cells were determined as normalized to the non-co-culture control. Data represent mean±SEM. n=5 independent experiments. Significance determined by one-way ANOVA analysis with Sidak's test for multiple comparisons.
MTDH-SND1 suppresses antigen presentation by reducing Tap1/2. To confirm that MTDH-SND1 drives immune evasion through suppressing the Tap1/2 pathway, antigen presentation-deficient cells were generated by knocking down Tap1/2^20. E0771-OVA cells were transduced with lentiviruses expressing Tap1/2-targeting shRNAs. […]

[2] = 15 mg/kg i.v., continuous treatment

In the case of `COc1ccc(Cl)cc1S(=O)(=O)Nc1cccn2nc(C)nc12` [Analog C26-A6], the primary tumor growth (orthotopic PyMT tumors; [2]) is reported as “significantly inhibited”, the spontaneous lung metastasis (orthotopic PyMT tumors; [2]) is reported as “significantly inhibited” and the “tumor apoptosis (cleaved-Caspase 3)” value (orthotopic PyMT tumors; IHC of primary tumors) is reported as “induced tumor apoptosis”. The “tumor proliferation (Ki67)” value (orthotopic PyMT tumors; IHC of primary tumors) was “reduced tumor proliferation”, the “immune killing (live tumor cells)” value [1] was “no boosting of immune killing” and the “antigen presentation and T cell activation” value ([1]; 24 hr co-culture) was “no such change”.

Reference: US20240398767A1, “INHIBITORS OF THE MTDH-SND1 PROTEIN COMPLEX FOR CANCER THERAPY” (The Trustees of Princeton University, priority 2021, published 2024)
